“Also recorded” adds a separate entry of the source.
Columns and labels:
Format in all cases: cell-based, human
SW480 (colon cancer) = assay: Apoptosis analysis (Annexin V FITC, flow cytometry); conditions: 3 days
Method: Apoptosis was analyzed by using an Annexin V FITC Apoptosis Detection Kit (Biosource, Camarillo, Calif.), according to the manufacturer's protocol. After treatment with different small molecule compounds at various concentrations for about 3 days, cells were harvested by trypsinization, stained and immediately analyzed by flow cytometry (FACScan; Decton Dickinson, Franklin Lake, N.J.). Early apoptotic cells with exposed phosphatidylserine but intact cell membranes will bind to Annexin V-FITC, but not propidium iodide (PI). Cells in necrotic or late apoptotic stages will be labeled with both Annexin V-FITC and PI. “% apoptotic cells” or “% apoptosis” refers to the combined early and late apoptotic cells.
Flow cytometry was used to examine apoptosis in colon cancer cells after treatment of cells with small molecule compounds of the invention.

[1] = system: GLI1-induced transcription in melanoma cell lines Malme-3M, A375, SK-Mel-2, SK-Mel-5; assay: 6xGLI BS-luciferase reporter assay; conditions: 20 μM, 16-20 hours
Method: One day before transfection, cells (1×10^5) were plated in 12-well plates with growth medium without antibiotics. When cells reached 80-90% of confluence they were co-transfected using 0.5 μg of each promoter construct in pGL3Basic vector and 0.025 μg pRL-TK Vector (Promega; Madison, Wis.) containing Renilla Luciferase as an internal control for the transformation efficiency. Lipofectamine 2000™ (Invitrogen Life Technologies) was used to mediate transfection for about 6 hours. […] Briefly, cells were lysed in a lysis buffer and Firefly and Renilla Luciferase activities in cells of each well, were measured using Dual-Luciferase Assay System (Promega) and an illuminometer. The measured luciferase activities were normalized to pRL-TK Vector activity and were given relative to the basal activity of empty pGL3-Basic Vector, which was set to unity. The data shown represent mean values (±S.D.). All measurements were performed in triplicate and repeated in at least three independent experiments. The human Wnt-2 promoter-luciferase construct, the human SOCS3 promoter-Luciferase construct and the human Gremlin promoter-luciferase construct were cloned and characterized in the laboratory of Dr. Jablons at the University of California, San Francisco (San Francisco, Calif.; He et al., Biochem Biophy Res Comm, 2003; and unpublished data). […]

[2] = system: cytosolic β-catenin in melanoma cell lines A375 and SK-Mel-5; assay: Western blot of cytosolic β-catenin; conditions: 10 μM or 20 μM
Method: […] Protein concentrations were measured using Bio-Rad Protein Assay reagent. Whole cell lysate protein (5-20 ug) were boiled for 5 min and separated by 10-20% SDS-PAGE. Proteins were transferred to an Immobilon-P membrane (Millipore Corp., Bedford, Mass.) using semi-dry transfer cell (Bio-Rad; Benicia, Calif.). The membranes were blocked with 5% nonfat milk powder and 0.1% Tween 20 in Tris-buffer saline overnight at 4° C. and then incubated with primary antibody for 1 h at room temperature. Membranes were washed in 5% nonfat milk powder and 0.1% Tween 20 in Tris-buffer saline for three 10-min periods. Horseradish peroxidase-conjugated goat anti-rabbit or donkey anti-mouse antibodies were used as secondary antibodies. Proteins were visualized with chemiluminescence luminol reagents (Santa Cruz Bio-technology). Anti-Dvl-3, and anti-Survivin, antibodies were from Santa Cruz Biotechnology (Santa Cruz, Calif.). Anti-Caspase3 antibody was from Oncogene (Cambridge, Mass.). Anti-β-Actin antibody was from Sigrna-Aldrich Corp. (St. Louis, Mo.). Anti-β-catenin antibody was from Transduction Laboratories (Lexington, Ky.). Anti-Cytochrome c antibody was from BD Biosciences (San Diego, Calif.). For detecting alteration of β-catenin cytosolic extracts were prepared and examined as described previously in the publications from our lab. […]

SMILES	% of apoptotic cells (SW480 (colon cancer); SW480, 10 μM) [%]	% of apoptotic cells (SW480 (colon cancer); SW480, 100 μM) [%]	6xGLI BS-luciferase activity (GLI1-induced) [1]	cytosolic β-catenin level [2]
O=C(NCCCCCO)C1C(c2ccccc2)=NN(c2ccccc2)C1c1ccccc1 (stereo not shown) [FN1-5, N-(5-Hydroxypentyl)-1,3,5-triphenyl-4,5-dihydro-pyrazole-4-carboxyamide]	10.8	58.6	–	–
O=C(NCCc1ccc(O)cc1)C1C(c2ccccc2)=NN(c2ccccc2)C1c1ccccc1 (stereo not shown) [FN1-8, N-(2-(4-Hydroxyphenyl)ethyl)-1,3,5-triphenyl-4,5-dihydro-pyrazole-4-carboxyamide]	–	–	significantly reduced level of luciferase activity; also recorded: down-regulates GLI1-induced transcription activity	down-regulated

Source: patent US7714014B2, “Targeting GLI proteins in human cancer by small molecules” (The Regents of the University of California, priority 2005, dated 2010)
